Assay results reported in EP0909764A1, “11 Beta-Benzaldoxim-9 Alpha, 10 Alpha-epoxy-estr-4-en-derivatives, a process for their production and pharmaceutical compositions containing them” (JENAPHARM GmbH, priority 1997, dated 1999).

How the values were obtained:
Progesteronrezeptor = target: T1, Progesteronrezeptor (Oryctolagus cuniculus, UniProt P06186); test: Receptor binding affinity, competitive binding with 3H-ORG 2058 in uterus cytosol; parameters: species or system Kaninchen; details: uterus cytosol of estradiol-primed rabbit; tracer 3H-ORG 2058 5nM; 18 h at 0-4°C; quotient of IC50 values x 100 %
T1 construct: Rezeptoren im Cytosol aus tierischen Target-Organen; from tissue; host or cells: uterus cytosol of estradiol-primed rabbit
T1 sequence (P06186 1-930): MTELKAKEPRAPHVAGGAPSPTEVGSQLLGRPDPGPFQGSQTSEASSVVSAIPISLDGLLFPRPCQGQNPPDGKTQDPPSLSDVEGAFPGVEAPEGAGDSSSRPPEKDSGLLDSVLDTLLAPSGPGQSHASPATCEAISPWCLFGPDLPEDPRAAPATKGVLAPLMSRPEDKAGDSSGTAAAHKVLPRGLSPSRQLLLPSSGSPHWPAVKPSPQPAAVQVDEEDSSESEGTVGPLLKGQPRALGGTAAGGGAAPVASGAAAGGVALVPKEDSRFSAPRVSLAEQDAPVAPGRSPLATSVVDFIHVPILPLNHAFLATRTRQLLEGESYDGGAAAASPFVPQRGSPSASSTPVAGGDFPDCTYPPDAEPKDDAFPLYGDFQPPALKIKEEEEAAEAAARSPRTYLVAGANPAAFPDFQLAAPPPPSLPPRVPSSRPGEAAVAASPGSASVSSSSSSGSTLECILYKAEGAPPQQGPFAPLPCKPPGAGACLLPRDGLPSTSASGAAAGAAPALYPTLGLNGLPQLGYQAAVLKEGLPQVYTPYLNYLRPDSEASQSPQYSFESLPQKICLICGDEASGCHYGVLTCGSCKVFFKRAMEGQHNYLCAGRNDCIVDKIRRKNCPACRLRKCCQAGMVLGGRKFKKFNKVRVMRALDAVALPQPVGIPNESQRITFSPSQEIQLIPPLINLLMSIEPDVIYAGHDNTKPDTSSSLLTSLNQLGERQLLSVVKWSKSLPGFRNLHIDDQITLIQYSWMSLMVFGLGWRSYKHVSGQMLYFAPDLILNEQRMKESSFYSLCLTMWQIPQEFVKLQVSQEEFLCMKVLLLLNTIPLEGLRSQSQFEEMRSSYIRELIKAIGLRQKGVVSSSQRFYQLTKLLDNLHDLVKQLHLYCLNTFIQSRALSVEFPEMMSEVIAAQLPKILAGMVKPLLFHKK
Method: (§1) Die Rezeptor-Bindungsaffinität wurde bestimmt durch competitive Bindung eines spezifisch bindenden ^3H-markierten Hormons (Tracer) und der zu testenden Verbindung an Rezeptoren im Cytosol aus tierischen Target-Organen. Dabei wurden Rezeptorsättigung und Reaktionsgleichgewicht angestrebt. Folgende Inkubationsbe-dingungen wurden gewählt: • Progesteron-Rezeptor: Uterus-Cytosol des Estradiol-geprimten Kannchens, aufbe-wahrt bei -30° C. Puffer für Homogenisation und Inkubation: TED-Puffer 20 mM Tris/HCl, pH= 7,4; 1mM Ethylendiamintetraacetat, 2 mM Dithiothreitol) mit 250mM Saccharose. Tracer: ^3H-ORG 2058, 5nM; Referenzsubstanz: Progesteron. • Glucocorticoid-Rezeptor: Thymus-Cytosol der adrenalectomierten Ratte. Thymi aufbewahrt bei -30 °C. Puffer: TED. Tracer: ^3H-Dexamethason, 20nM. Referenzsub-stanz: Dexamethason. • Estrogen-Rezeptor: Uterus-Cytosol des unreifen Kaninchens, aufbewahrt bei -30 °C. Puffer:TED mit 250 mM Saccharose. Tracer: ^3H-Estradiol, 3nM. Referenzsubstanz: 17β-Estradiol.
(§2) Nach einer Inkubation von Rezeptorfraktion, Tracer und Competitor für 18 h bei 0-4°C erfolgte die Trennung von gebundenem und freiem Steroid durch Einmischen von Aktivkohle/Dextran (1 % / 0,1 %), Abzentrifugieren und Messung der rezeptorgebundenen ^3H-Aktivität im Überstand.
Aus der Messung in Konzentrationsreihen wurden die IC50 für die Referenzsubstanz und für die zu testende Verbindung ermittelt und als Quotient beider Werte (x 100 %) die relative molare Bindungsaffinität bestimmt. Nach einer Inkubationsdauer von 18 Stunden bei 0-4 °C erfolgte die Trennung von gebundenen und freiem Steroid durch Einmischen von Aktivkohle/Dextran / 1%/0,1 %), abzentrifugieren und Messung der gebundenen ^3H-Aktivität im Überstand. Aus der Messung in Konzentrationsreihen wurden die IC50 für die zu testende Substanz und für die Referenzverbindung ermittelt und als Quotient beider Werte (x 100 %) die relative molare Bindungsaffinität bestimmt.

Glucocorticoidrezeptor = target: T2, Glucocorticoidrezeptor (Rattus norvegicus, UniProt P06536); test: Receptor binding affinity, competitive binding with 3H-Dexamethason in thymus cytosol; parameters: species or system Ratte; details: thymus cytosol of adrenalectomised rat; tracer 3H-Dexamethason 20nM; 18 h at 0-4°C; quotient of IC50 values x 100 %
T2 construct: Rezeptoren im Cytosol aus tierischen Target-Organen; from tissue; host or cells: thymus cytosol of adrenalectomised rat
T2 sequence (P06536 1-795): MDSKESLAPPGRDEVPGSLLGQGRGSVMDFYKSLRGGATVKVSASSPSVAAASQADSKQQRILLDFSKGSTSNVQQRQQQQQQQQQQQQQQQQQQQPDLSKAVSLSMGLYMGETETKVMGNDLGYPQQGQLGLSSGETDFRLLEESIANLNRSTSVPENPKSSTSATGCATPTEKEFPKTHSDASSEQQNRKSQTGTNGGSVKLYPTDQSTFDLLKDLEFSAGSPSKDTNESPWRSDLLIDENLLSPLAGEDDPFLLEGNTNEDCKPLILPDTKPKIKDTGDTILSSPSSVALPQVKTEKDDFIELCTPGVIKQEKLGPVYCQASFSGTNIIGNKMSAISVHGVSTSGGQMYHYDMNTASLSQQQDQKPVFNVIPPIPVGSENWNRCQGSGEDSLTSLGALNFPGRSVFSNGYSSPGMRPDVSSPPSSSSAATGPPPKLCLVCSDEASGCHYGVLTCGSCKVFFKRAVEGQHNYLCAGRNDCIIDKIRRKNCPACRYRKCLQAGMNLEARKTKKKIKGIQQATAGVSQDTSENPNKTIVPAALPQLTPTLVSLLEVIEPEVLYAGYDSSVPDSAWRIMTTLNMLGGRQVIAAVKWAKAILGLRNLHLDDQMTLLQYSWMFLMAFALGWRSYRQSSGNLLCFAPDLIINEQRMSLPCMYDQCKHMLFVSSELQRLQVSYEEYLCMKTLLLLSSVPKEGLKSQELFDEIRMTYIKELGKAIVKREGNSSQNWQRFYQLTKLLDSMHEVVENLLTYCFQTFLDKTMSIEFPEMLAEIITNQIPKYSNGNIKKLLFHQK
Method: as §1, with “Tracer: ^3H-ORG 2058, 5nM; Referenzsubstanz: Progesteron. • Glucocorticoid-Rezeptor: Thymus-Cytosol der adrenalectomierten Ratte.” left out
as §2
Nach einer Inkubationsdauer von 18 Stunden bei 0-4 °C erfolgte die Trennung von gebundenen und freiem Steroid durch Einmischen von Aktivkohle/Dextran / 1%/0,1 %), abzentrifugieren und Messung der gebundenen ^3H-Aktivität im Überstand.

[1] = tested on: frühe Gravidität bei der Ratte; test: Inhibition of early pregnancy in the rat (early abortive effect, subcutaneous); assay type: in vivo; details: day 5-7 of pregnancy, empty uteri; for komplette Graviditätshemmung N#/N: N# non-pregnant females / N mated females
Method: Rattenweibchen wurde im Stadium Prooestrus angepaart. Bei Nachweis von Spermien im Vaginalbereich am nächsten Tag wird dieser als Tag 1 (d =1) der Gravidität gesetzt. Die Behandlung der Ratten mit Testsubstanz oder Vehikel erfolgt mit 0,2 ml Benzoylbenzoat /Rizinusöl (1+4 v/v) subcutan vom Tag 5 bis Tag 7 (d5 -d7), die Autopsie erfolgt am Tag d 9. Die Rate von vollständig gehemmten Graviditäten in den einzelnen Gruppen ergibt sich aus Tabelle 2. So wurde für die Beispiele 1 (J 1102), 3 (J 1116), 8 (J 1204) und 9 (J 1120) eine um den Faktor 10 überlegene Nidationshemmung gegenüber RU 486 (Mifepriston) ermittelt.

Which “relative molare Bindungs-affinität RBA (%) zum Progesteronrezeptor Progesteron = 100 %” value (Progesteronrezeptor) does the source give for `COC[C@]1(OC)CC[C@H]2[C@@H]3CCC4=CC(=O)CC[C@]45O[C@]35[C@@H](c3ccc(/C=N/O)cc3)C[C@@]21C` [1 ( J 1102)] here?
Its value is 88%.

And the “relative molare Bindungs-affinität RBA (%) zum Glucocorticoidrezeptor Dexamethason = 100 %” value (Glucocorticoidrezeptor)?
Its value is 12%.

How did the “relative molare Bindungs-affinität RBA (%) zum Progesteronrezeptor Progesteron = 100 %” value (Progesteronrezeptor) turn out when `COC[C@]1(OC)CC[C@H]2[C@@H]3CCC4=CC(=O)CC[C@]45O[C@]35[C@@H](c3ccc(/C=N\O)cc3)C[C@@]21C` [2 ( J 1160)] was run?
Its value is 49%.

And the “relative molare Bindungs-affinität RBA (%) zum Glucocorticoidrezeptor Dexamethason = 100 %” value (Glucocorticoidrezeptor)?
The value was 18%.

Which results are given for `COC[C@]1(O)CC[C@H]2[C@@H]3CCC4=CC(=O)CC[C@]45O[C@]35[C@@H](c3ccc(/C=N/O)cc3)C[C@@]21C` [3 ( J 1116)]?
relative molare Bindungs-affinität RBA (%) zum Progesteronrezeptor Progesteron = 100 % (Progesteronrezeptor): 47%; relative molare Bindungs-affinität RBA (%) zum Glucocorticoidrezeptor Dexamethason = 100 % (Glucocorticoidrezeptor): 12%

For `COC[C@]1(O)CC[C@H]2[C@@H]3CCC4=CC(=O)CC[C@]45O[C@]35[C@@H](c3ccc(/C=N\O)cc3)C[C@@]21C` [4 ( J 1182)], which “relative molare Bindungs-affinität RBA (%) zum Progesteronrezeptor Progesteron = 100 %” value (Progesteronrezeptor) is on record?
The value was 29%.

For `COC[C@]1(OC)CC[C@H]2[C@@H]3CCC4=CC(=O)CC[C@]45O[C@]35[C@@H](c3ccc(/C=N/OC(C)=O)cc3)C[C@@]21C` [5 ( J 1130)], which “relative molare Bindungs-affinität RBA (%) zum Progesteronrezeptor Progesteron = 100 %” value (Progesteronrezeptor) is on record?
The value was 59%.

What about the “relative molare Bindungs-affinität RBA (%) zum Glucocorticoidrezeptor Dexamethason = 100 %” value (Glucocorticoidrezeptor) of the same molecule?
Its value is 15%.

What does the source list for `COC[C@]1(O)CC[C@H]2[C@@H]3CCC4=CC(=O)CC[C@]45O[C@]35[C@@H](c3ccc(/C=N/OC(C)=O)cc3)C[C@@]21C` [6 ( J 1180)]?
relative molare Bindungs-affinität RBA (%) zum Progesteronrezeptor Progesteron = 100 % (Progesteronrezeptor): 31%; relative molare Bindungs-affinität RBA (%) zum Glucocorticoidrezeptor Dexamethason = 100 % (Glucocorticoidrezeptor): 8%

How did the “relative molare Bindungs-affinität RBA (%) zum Progesteronrezeptor Progesteron = 100 %” value (Progesteronrezeptor) turn out when `CCOC(=O)O/N=C/c1ccc([C@H]2C[C@@]3(C)[C@@H](CC[C@]3(COC)OC)[C@@H]3CCC4=CC(=O)CC[C@]45O[C@]235)cc1` [9 ( J 1120)] was run?
The value was 63%.

And the “relative molare Bindungs-affinität RBA (%) zum Glucocorticoidrezeptor Dexamethason = 100 %” value (Glucocorticoidrezeptor)?
Its value is 15%.

`CCNC(=O)O/N=C/c1ccc([C@H]2C[C@@]3(C)[C@@H](CC[C@@]3(O)COC)[C@@H]3CCC4=CC(=O)CC[C@]45O[C@]235)cc1` [16 ( J 1186)] was tested. Which “relative molare Bindungs-affinität RBA (%) zum Progesteronrezeptor Progesteron = 100 %” value (Progesteronrezeptor) did it give?
Its value is 64%.

And the “relative molare Bindungs-affinität RBA (%) zum Glucocorticoidrezeptor Dexamethason = 100 %” value (Glucocorticoidrezeptor)?
Its value is 13%.

For `CCNC(=O)O/N=C/c1ccc([C@H]2C[C@@]3(C)[C@@H](CC[C@]3(COC)OC)[C@@H]3CCC4=CC(=O)CC[C@]45O[C@]235)cc1` [17 ( J 1131)], which “relative molare Bindungs-affinität RBA (%) zum Progesteronrezeptor Progesteron = 100 %” value (Progesteronrezeptor) is on record?
The value was 68%.

And the “relative molare Bindungs-affinität RBA (%) zum Glucocorticoidrezeptor Dexamethason = 100 %” value (Glucocorticoidrezeptor)?
Its value is 30%.

`COC[C@]1(OC)CC[C@H]2[C@@H]3CCC4=CC(=O)CCC4=C3[C@@H](c3ccc(/C=N/O)cc3)C[C@@]21C` [J 867] was tested. Which “komplette Graviditätshemmung N#/N” value ([1]; 0,3 mg/Tier/Tag s.c.) did it give?
Its value is 0/5.

And the “komplette Graviditätshemmung %” value ([1]; 0,3 mg/Tier/Tag s.c.)?
The value was 0%.

And the “komplette Graviditätshemmung N#/N” value ([1]; 1 mg/Tier/Tag s.c.)?
The value was 5/5.

What about the “komplette Graviditätshemmung %” value ([1]; 1 mg/Tier/Tag s.c.) of the same molecule?
Its value is 100%.

What about the “komplette Graviditätshemmung N#/N” value ([1]; 3 mg/Tier/Tag s.c.) of the same molecule?
The value was 5/5.

And the “komplette Graviditätshemmung %” value ([1]; 3 mg/Tier/Tag s.c.)?
Its value is 100%.

What about the “relative molare Bindungs-affinität RBA (%) zum Progesteronrezeptor Progesteron = 100 %” value (Progesteronrezeptor) of the same molecule?
The value was 302%.

And the “relative molare Bindungs-affinität RBA (%) zum Glucocorticoidrezeptor Dexamethason = 100 %” value (Glucocorticoidrezeptor)?
Its value is 77%.

How did the “komplette Graviditätshemmung N#/N” value ([1]; 0,3 mg/Tier/Tag s.c.) turn out when `CC#C[C@]1(O)CC[C@H]2[C@@H]3CCC4=CC(=O)CCC4=C3[C@@H](c3ccc(N(C)C)cc3)C[C@@]21C` [RU 486, Mifepriston] was run?
The value was 0/5.

What about the “komplette Graviditätshemmung %” value ([1]; 0,3 mg/Tier/Tag s.c.) of the same molecule?
Its value is 0%.

What about the “komplette Graviditätshemmung N#/N” value ([1]; 1 mg/Tier/Tag s.c.) of the same molecule?
Its value is 1/5.

What about the “komplette Graviditätshemmung %” value ([1]; 1 mg/Tier/Tag s.c.) of the same molecule?
Its value is 20%.

And the “komplette Graviditätshemmung N#/N” value ([1]; 3 mg/Tier/Tag s.c.)?
The value was 5/5.

And the “komplette Graviditätshemmung %” value ([1]; 3 mg/Tier/Tag s.c.)?
Its value is 100%.

What about the “relative molare Bindungs-affinität RBA (%) zum Glucocorticoidrezeptor Dexamethason = 100 %” value (Glucocorticoidrezeptor) of the same molecule?
The value was 685%.

With `CN(C)c1ccc([C@H]2C[C@]3(C)[C@@H](CC[C@]3(O)CCCO)[C@@H]3CCC4=CC(=O)CCC4=C32)cc1` [ZK 98299, Onapriston] as the molecule, how does the “relative molare Bindungs-affinität RBA (%) zum Progesteronrezeptor Progesteron = 100 %” value (Progesteronrezeptor) read?
Its value is 22%.

And the “relative molare Bindungs-affinität RBA (%) zum Glucocorticoidrezeptor Dexamethason = 100 %” value (Glucocorticoidrezeptor)?
The value was 39%.
